Structures are written as SMILES.

In ChEMBL document CHEMBL1157539, “Thousands of chemical starting points for antimalarial lead identification” (Nature, 2010) one finds XC50 data, which are given here for 83 compounds.

The assay relates to Plasmodium falciparum. Description: GSK_TCMDC: Inhibition of Plasmodium falciparum 3D7 in whole erythrocytes, using parasite LDH activity as an index of growth. Format: functional, organism-based.

As to `CCOC(=O)c1ccc(Nc2cc(Nc3ccc(C(=O)OCC)cc3)nc(C)n2)cc1`, where the note is “Plasmodium falciparum, 3D7”, the XC50 came out at 907 nM. On the same count and under the same terms, as for `COc1cc2nc(N3CCN(C(=O)c4ccc(N(C(=O)OC(C)(C)C)C(=O)OC(C)(C)C)cc4)CC3)nc(N)c2cc1OC`, the figure is 1000 nM. The same measure, in the same setting: the same measure for `Cc1[nH]c(/C=C2\C(=O)Nc3ccc(S(=O)(=O)Cc4c(Cl)cccc4Cl)cc32)c(C)c1C(=O)N1CCC[C@@H]1CN1CCCC1` [PHA-665752]: 720 nM. The same measure, in the same setting: as for `N#Cc1ccc(N(CCOc2ccc(Cl)c(Cl)c2)Cc2ccccc2C(F)(F)F)cc1C(F)(F)F`, the figure is 1110 nM; as for `Oc1ccc2[nH]c(-c3cccc(F)c3)nc2c1CNCc1ccccc1`, 916 nM; as for `CN1CCN(C(C(=O)NCc2cc(Cl)cc(Cl)c2)c2ccc(Nc3cccc(C(F)(F)F)c3)cc2)CC1` (stereo not drawn), 1120 nM. `COc1ccc(CNC2CCN(C)CC2)cc1-c1cccc(S(=O)(=O)NCc2ccccc2)c1` came in with an XC50 (Plasmodium falciparum, 3D7) of 723 nM. Still for that read-out and setting: as for `CCCCC(=O)N(CCOC)Cc1ccc(-c2ccc(CNCCC)cn2)cc1`, the figure is 730 nM; as for `Cc1nnsc1C(=O)Nc1cccc(-c2ccc(-c3nc4ccccc4[nH]3)cc2)c1`, 870 nM. The same measure, in the same setting: the same measure for `Cc1c(N=O)cc(C(C)(C)C)c(O)c1C(=O)Nc1ccc([N+](=O)[O-])cc1Cl`: 775 nM; for `COc1ccc(-c2ccccc2CNC2Cc3ccccc3C2)cc1S(=O)(=O)NCCN1CCCC1`: 870 nM; for `CCCCn1c(=N)c(C(=O)NCc2cccnc2)cc2c(=O)n3cccc(C)c3nc21`: 745 nM. Where the note is “Plasmodium falciparum, 3D7”, `COc1ccc(CN(C)CCCc2ccc(NC(=O)c3cccc4c(O)c5ccccc5nc34)cc2)cc1OC` returned an XC50 of 1370 nM. The same measure, in the same setting: the same measure for `FC(F)(F)c1cccc(N2CCC(CN3CCC(c4c[nH]c5ccccc45)CC3)CC2)n1`: 980 nM; for `Cc1cc2nc(-c3ccc(C(=O)NCCCc4ccccc4)cc3)[nH]c2cc1C`: 1180 nM; for `Oc1ccc2[nH]cc(C3CCN(CCCCCCCCCN4CCC(c5c[nH]c6ccc(O)cc56)CC4)CC3)c2c1`: 314 nM. On the same count and under the same terms, the same measure for `Nc1nc(N)c2c(Cl)c(N(Cc3ccccc3)Cc3ccccc3)ccc2n1`: 192 nM. Still for that read-out and setting: the same measure for `Cc1cc(NCCc2ccccc2)nc(NC(=N)Nc2cccc(Cl)c2)n1`: 181 nM; for `COc1ccc2c(NN=Cc3cccc(F)c3)ccnc2c1`: 207 nM; for `CCOC(=O)CN(c1ccc(Br)cc1OCCOc1cc(Br)ccc1N(CC(=O)OCC)C(C)C(=O)OCC)C(C)C(=O)OCC` (stereo not drawn): 806 nM. For `COc1ccc(S(=O)(=O)Nc2ccc(C(=O)NCc3ccc(C(F)(F)F)cc3)cc2)cc1N1CCN(CC2CC2)CC1`, the XC50 (Plasmodium falciparum, 3D7) was found to be 1120 nM. For the compound `COc1cc(C(=O)N2CCOC(CCN3CCc4c(c5ccccc5n4C)C3)(c3ccc(Cl)c(Cl)c3)C2)cc(OC)c1OC` (stereo not drawn), where the note is “Plasmodium falciparum, 3D7”, the XC50 was determined as 357 nM.

`Cc1cccc2nc(-c3ccc(-c4cccc(NC(=O)COc5ccccc5C(N)=O)c4)s3)[nH]c12` showed an XC50 (Plasmodium falciparum, 3D7) of 734 nM. Same read-out and setting: as for `CCCCCN1CCCCC(NS(=O)(=O)c2ccc(C(=O)Nc3ccc(C(F)(F)F)cc3)cc2)C1` (stereo not drawn), the figure is 768 nM.

Turning to `CS(=O)(=O)c1ccc(CCNCc2ccc(-c3ccc(CN(C(=O)c4cccc(C#N)c4)C4CCN(Cc5ccccc5)CC4)cc3)nc2)cc1`, the XC50 (Plasmodium falciparum, 3D7) was 977 nM. `CC1CCCN1Cc1ccc(-c2ccc3c(=O)cc(CCc4cccc(F)c4F)n(CC(=O)N(C)Cc4ccc(-c5ccc(C(F)(F)F)cc5)cc4)c3n2)cc1` (stereo not drawn) had an XC50 (Plasmodium falciparum, 3D7) of 823 nM. With `O=[N+]([O-])c1ccc2nc(Nc3ccc(Cl)c(Cl)c3)c(Nc3ccc(Cl)c(Cl)c3)nc2c1`, the XC50 (Plasmodium falciparum, 3D7) was 793 nM. Still for that read-out and setting: the same measure for `FC(F)(F)c1ccc2c(NCCCNc3ccnc4cc(C(F)(F)F)ccc34)ccnc2c1`: 31.5 nM; for `O=C(NCc1ccccc1[S+]([O-])c1ccccc1CO)C(F)(F)F` (stereo not drawn): 184 nM. Still for that read-out and setting: as for `N#Cc1ccc2c(c1)CCN(CCC1CCC(NC(=O)c3ccc(-c4ccccc4)s3)CC1)CC2` (stereo not drawn), the figure is 684 nM. On the same count and under the same terms, the same measure for `Oc1ccc(Cl)cc1CN1CCC(CCOC(c2ccccc2)c2ccccc2)CC1`: 649 nM. For `Cc1c(CNCCCNc2cc(=O)c3ccccc3[nH]2)sc(/C=N/O)c1Br`, the XC50 (Plasmodium falciparum, 3D7) amounted to 1080 nM. In the case of `O=[N+]([O-])c1ccc(-n2nc(-c3cccnc3)n(Cc3ccco3)c2=S)c(Cl)c1`, the XC50 (Plasmodium falciparum, 3D7) was found to be 200 nM.

Under “Plasmodium falciparum, 3D7”, `CCCCCN1CCCC1CNS(=O)(=O)c1cccc(C(=O)Nc2cccc(C(F)(F)F)c2)c1` (stereo not drawn) had an XC50 of 770 nM. As for `Cc1ccc(C)c2sc(N(CCCn3ccnc3)C(=O)c3ccco3)nc12`, for the setting “Plasmodium falciparum, 3D7”, the XC50 is 874 nM. Same read-out and setting: the same measure for `Cc1nc2ccc3ccc(CNc4ccc5c(c4)CN([C@H](CCC(=O)O)C(=O)O)C5=O)cc3c2c(=O)[nH]1`: 860 nM; for `O=C(NC1CCN(Cc2ccccc2)CC1)c1ccc(-c2nc3cc(Cl)c(F)cc3[nH]2)s1`: 306 nM.

In the case of `COC(=O)/C=C/c1ccc(CC(C)NCC(O)c2cccc(C(F)(F)F)c2)cc1` (stereo not drawn), the XC50 worked out at 775 nM.

`O=C(NC1CCN(Cc2ccccc2)CC1)c1cccc(-c2nc3ccc(Cl)cc3[nH]2)c1` yielded an XC50 (Plasmodium falciparum, 3D7) of 864 nM.

In turn, `CCCCN1C(=N)NC(c2ccccc2)(c2ccccc2)C1=O` returned an XC50 (Plasmodium falciparum, 3D7) of 1030 nM.

On to `CC(C)CN1CCCN(Cc2cccc(NC(=O)c3cc4ccccc4s3)c2)CC1`, for which, where the note is “Plasmodium falciparum, 3D7”, the XC50 is 1770 nM. The same measure, in the same setting: the same measure for `O=C(O[C@@H]1CN[C@H](C#Cc2cc3ncnc(Nc4ccc5c(cnn5Cc5cccc(F)c5)c4)c3s2)C1)N1CCCC1`: 757 nM; for `O=C(NCc1ccc(Cl)c(Cl)c1)c1cc(CNC2CCNCC2)ccc1O`: 859 nM. The same measure, in the same setting: the same measure for `CC(C)CC(C)NC(=O)C1Cc2c([nH]c3ccc(F)cc23)C2(CCN(Cc3ccccc3)CC2)N1` (stereo not drawn): 970 nM; for `CN1CCC(N2CCN(Cc3ccc(-c4ccc(-c5nc6cc(F)ccc6[nH]5)s4)cc3)CC2)CC1`: 153 nM. Still for that read-out and setting: the same measure for `COc1ccc(C(=O)NC(c2ccc(Cl)cc2Cl)c2cc(Cl)c3cccnc3c2O)cc1` (stereo not drawn): 499 nM; for `CCCCCN1CCCN(Cc2cccc(NC(=O)c3cc4ccccc4s3)c2)CC1`: 594 nM; for `CCN(CC)C(=O)c1cccc(C=Cc2ccc(-c3c(C)[nH]c(C)c(Cl)c3=O)cc2)c1`: 259 nM. On to `CC(C)C(C(=O)n1cc2c(ccc3nc(N)nc(N)c32)n1)C(C)C`, for which the XC50 (Plasmodium falciparum, 3D7) stood at 790 nM.

With `CC1CCCN(c2ccc(NC(=O)c3cccs3)cc2[N+](=O)[O-])C1` (stereo not drawn), for the setting “Plasmodium falciparum, 3D7”, the XC50 is 669 nM. On the same count and under the same terms, as for `O=C(NCc1ccc(S(=O)(=O)N2CCC(CN3CCC(c4c[nH]c5ccccc45)CC3)CC2)s1)c1ccccc1`, the figure is 843 nM; as for `N#CC(c1ccc(Br)cc1)c1ccc2c(C(F)(F)F)cc(C(F)(F)F)nc2n1` (stereo not drawn), 440 nM.

Take `COc1ccc(C[C@H](N)C(=O)N[C@H]2[C@@H](O)[C@H](n3cnc4c(N(C)C)ncnc43)O[C@@H]2CO)cc1` [PUROMYCIN]: the XC50 came out at 174 nM. In the case of `CC1(C)N=C(NC(=O)c2cc([N+](=O)[O-])cc([N+](=O)[O-])c2)N=C(N)N1OCc1cccc2ccccc12`, the XC50 (Plasmodium falciparum, 3D7) is 6.84 nM. Still for that read-out and setting: the same measure for `Fc1ccc2[nH]c(-c3cccc(-c4cccc(CNCC5CCCO5)c4)c3)nc2c1` (stereo not drawn): 513 nM; for `COc1ccc(C2CCN(CCCCNC(=O)c3ccc(NC(=O)c4ccc(Cl)cc4)cc3)C2)c(OC)c1` (stereo not drawn): 1200 nM; for `N#Cc1cnc2cc(-c3cnc(CNCCN4CCOCC4)s3)ccc2c1Nc1ccc(Oc2ccccc2)cc1`: 726 nM.

Compound `CC(C)(C)c1ccccc1OCCCON1C(=N)N=C(N)NC1(C)C` displayed an XC50 (Plasmodium falciparum, 3D7) of 3.2 nM.

For the compound `O=S(=O)(c1ccc(OCc2ccc(Cl)cc2)cc1)c1cc2c(cc1O)CCN(C1CCC1)CC2`, under “Plasmodium falciparum, 3D7”, the XC50 turned out to be 942 nM. Still for that read-out and setting: as for `CCOc1c(OC)ccc2c1CCN(CCN1CCC(CNC(=O)c3ccc(-c4ccc(C(F)(F)F)cc4)cc3)CC1)C2`, the figure is 849 nM. Same read-out and setting: the same measure for `CC(=O)Nc1cc(C(=O)Nc2cccc(-c3cccc(-c4nc5cc(C(F)(F)F)ccc5[nH]4)c3)c2)ccc1C`: 215 nM; for `Fc1ccc(-c2cncc(-c3ccc(F)cc3)n2)cc1`: 639 nM. Same read-out and setting: as for `N#Cc1ccc2c(c1)CCN(CCC1CCC(NC(=O)c3cc4ccc(Br)cc4[nH]3)CC1)C2` (stereo not drawn), the figure is 756 nM; as for `O=C(Nc1ccc(Cn2nc(Cl)c(N3CCNCC3)cc2=O)cc1)Nc1ccc(-c2ccccc2)cc1`, 753 nM; as for `Cc1[nH]cnc1CSCCNC(=N)NCCCCCCCCNC(=N)NCCSCc1nc[nH]c1C`, 268 nM.

`Cc1c2c(nn1-c1ccccc1)C(c1ccccc1)N(c1ccccc1)C2=O` (stereo not drawn) yielded an XC50 (Plasmodium falciparum, 3D7) of 147 nM.

With `CN1C(C)(C)CC(NC(=O)c2ccc(-c3cc4cc(Cl)c(Cl)cc4[nH]3)o2)CC1(C)C`, the XC50 (Plasmodium falciparum, 3D7) is 1120 nM. As to `CCOC(=O)CCCOc1cc(Cc2cnc(N)nc2N)cc(OC)c1OC`, under “Plasmodium falciparum, 3D7”, the XC50 came to 239 nM. Same read-out and setting: the same measure for `N=C1NC(c2ccccc2)(c2ccccc2)C(=O)N1CC=Cc1ccccc1`: 598 nM; for `CCn1c(Sc2ccc(C#N)c([N+](=O)[O-])c2)nnc1-c1cc(OC)cc(OC)c1`: 565 nM. The same measure, in the same setting: as for `CCCCc1ccc(C(=O)Nc2ccc3nc(N4CCN(C)CC4)cc(C)c3c2)cc1`, the figure is 1100 nM; as for `CC(=Nc1ccc(Cl)c(Cl)c1)N(C)C`, 540 nM; as for `Cc1cc(NC(=O)Nc2ccc3nc(C)oc3c2)c2cc(Cl)ccc2n1`, 1120 nM. The same measure, in the same setting: as for `NC(=O)c1ccccc1OCC(=O)Nc1ccc(-c2cccc(-c3nc4cc(C(F)(F)F)ccc4[nH]3)c2)cc1`, the figure is 978 nM. In the case of `c1cn(-c2ccc(CNc3nccc(Nc4ccc(OCCN5CCOCC5)cc4)n3)cc2)cn1`, where the note is “Plasmodium falciparum, 3D7”, the XC50 was determined as 878 nM. Same read-out and setting: the same measure for `COc1ccc(CNc2nc(Nc3cccc(C#N)c3)nc(Nc3cccc(C#N)c3)n2)cc1Cl`: 179 nM; for `CC1N=C(N)N=C(N)N1OCc1cccc2ccccc12` (stereo not drawn): 3.2 nM. The same measure, in the same setting: the same measure for `Fc1ccc2[nH]c(-c3ccc(-c4ccc(CNCC5CCCO5)cc4)s3)nc2c1` (stereo not drawn): 599 nM; for `CCOc1cc(NC(=O)Nc2ccnc3ccccc23)cc(OC)c1`: 866 nM. On the same count and under the same terms, the same measure for `Oc1cc(NC[C@H]2CCC[C@@H]2NCc2cc(Br)cc(Br)c2)nc2ccccc12`: 678 nM.

`O=C(/C=C/c1ccc([N+](=O)[O-])cc1)N1CCC(NS(=O)(=O)c2ccc(Br)cc2)CC1`: the XC50 (Plasmodium falciparum, 3D7) was found to be 1050 nM.

In turn, `COc1cccc(NC(=O)c2cc(Br)cc(N3CCN(c4ccncc4)CC3)c2)c1` yielded an XC50 (Plasmodium falciparum, 3D7) of 772 nM. On the same count and under the same terms, as for `O=c1cc(NCCCNCc2cc(Cl)cc(Cl)c2OCc2ccccc2)[nH]c2ccccc12`, the figure is 1030 nM.
